System: B16F10 melanoma
Test: Murine tumor model of B16F10 melanoma
Type: in vivo, mouse
Details: intravenous 20 mg/kg once daily
Description: To evaluate the efficacy of TRPM7 inhibitors in vivo, M6 was selected to for a pilot evaluation of its ability to reduce tumor formation in a murine tumor model of B16F10 melanoma and a RXF-393 human renal cell carcinoma xenograft model of tumor proliferation. […] For each tumor model, an appropriate number of cells were injected into the right flank (˜3-5 million cells per animal in 0.1 ml 50% matrigel/50% media). When tumor sizes reached 100-150 mg, animals were randomized into control (vehicle only), positive control or M6. M6 was given by intravenous injection to 20 mg/kg once daily. Tumors were measured and the weights were calculated by standard means.

## COc1cc2c(cc1OC)C(c1sc3ccccc3c1Cl)=NCC2 [Compound M6]
  melanoma tumor growth: reduces tumor growth
